This is an account of results in ChEMBL document CHEMBL1201862, “PubChem BioAssay data set” (2004).

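Compound exposure: 48 hours, 5 concentrations, 96-well plates. The concentration for 50% growth inhibition is given as GI50.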 The source made the active and inactive calls. Cut-off read from the data, not from the text of the source: active = GI50 up to about 1.1 µM and inactive = higher.

Among the test systems are A549; ACHN; DU-145; HL-60; Hs-578T; MCF7; MDA-MB-231; MDA-MB-435; OVCAR-8; PC-3; RXF 393; SK-MEL-28; SK-MEL-5; SK-OV-3; SNB-75; SW-620; T47D; U-251; UO-31; NCI-H460.
What all share (assay): growth of human tumour cells (NCI), 48 h

With `O=c1[nH]c2nc3ccccc3c(=O)n2/c1=C/c1ccccc1`, the GI50 in the experiment on A549 was > 100 µM (inactive); in the experiment with ACHN, 47 µM (inactive); with DU-145 it was 29 µM (inactive); in the experiment on HL-60, 56.1 µM (inactive); in the experiment on Hs-578T, 29 µM (inactive); with MCF7, 44.2 µM (inactive). Besides, the GI50 was > 100 µM (inactive) in the experiment with MDA-MB-231; 21.9 µM (inactive) in the experiment on MDA-MB-435; 28 µM (inactive) in the experiment with OVCAR-8; 92 µM (inactive) in the experiment with PC-3; 55 µM (inactive) in the experiment on RXF 393; 45.1 µM (inactive) with SK-MEL-28. In addition, the GI50 in the experiment on SK-MEL-5 is 48.9 µM (inactive); in the experiment on SK-OV-3 it was > 100 µM (inactive); in the experiment with SNB-75, 30.5 µM (inactive); in the experiment on SW-620 it was 17.7 µM (inactive); in the experiment on T47D, 40.4 µM (inactive); in the experiment with U-251, 29.9 µM (inactive). Also, the GI50 with UO-31 was 78 µM (inactive).
Regarding `C=C(C(N)=O)c1ccc([N+](=O)[O-])o1`, the GI50 in the experiment with A549 was 15.1 µM (inactive); with ACHN, 2.89 µM (inactive); in the experiment on DU-145, 11.4 µM (inactive); in the experiment on HL-60, 3.16 µM (inactive); in the experiment with Hs-578T, 36.4 µM (inactive); in the experiment with MCF7 it was 6.11 µM (inactive). Besides, the GI50 in the experiment with MDA-MB-231 is 13.8 µM (inactive); in the experiment with MDA-MB-435 it was 2.56 µM (inactive); with NCI-H460, 19.9 µM (inactive); in the experiment on OVCAR-8, 2.9 µM (inactive); in the experiment with PC-3, 30.7 µM (inactive); in the experiment on RXF 393, 3.08 µM (inactive). The GI50 with SK-MEL-28 is 2.67 µM (inactive); in the experiment with SK-MEL-5 it was 5.74 µM (inactive); with SK-OV-3, 30.8 µM (inactive); in the experiment on SNB-75, 9.46 µM (inactive); with SW-620 it was 5.81 µM (inactive); with T47D, 20.5 µM (inactive). The GI50 with U-251 is 15.6 µM (inactive).
Consider `Cc1ccn2c(=O)cc(-c3ccccc3)nc2c1`, for which the GI50 is > 100 µM (inactive) in the experiment on A549; 71.1 µM (inactive) in the experiment with ACHN; > 100 µM (inactive) with DU-145; > 100 µM (inactive) in the experiment on HL-60; > 100 µM (inactive) in the experiment with Hs-578T; > 100 µM (inactive) in the experiment with MCF7. Besides, the GI50 in the experiment with MDA-MB-231 is > 100 µM (inactive); in the experiment on MDA-MB-435 it was > 10 µM (inactive); in the experiment on NCI-H460, > 100 µM (inactive); in the experiment on OVCAR-8 it was > 100 µM (inactive); with PC-3, > 100 µM (inactive); with RXF 393, > 100 µM (inactive). Besides, the GI50 in the experiment with SK-MEL-28 was > 100 µM (inactive); in the experiment on SK-MEL-5, > 100 µM (inactive); with SK-OV-3, > 100 µM (inactive); with SNB-75 it was 18.3 µM (inactive); in the experiment with SW-620, > 100 µM (inactive); in the experiment with T47D it was 49.7 µM (inactive). Besides, the GI50 in the experiment with U-251 was > 100 µM (inactive).
Turning to `Cc1ccc(-c2n[nH]c(=O)n2/N=C\c2ccccc2)cc1`, the GI50 in the experiment with A549 is > 88.5 µM (inactive); with ACHN, 50.6 µM (inactive); in the experiment with DU-145, > 94.2 µM (inactive); in the experiment with HL-60 it was 70.1 µM (inactive); in the experiment with Hs-578T it was 23.7 µM (inactive); in the experiment on MCF7, 56.2 µM (inactive). For the same compound, the GI50 in the experiment with MDA-MB-231 was 60.5 µM (inactive); in the experiment with MDA-MB-435, > 100 µM (inactive); in the experiment with NCI-H460, 33.6 µM (inactive); in the experiment with OVCAR-8, 53.1 µM (inactive); with PC-3, > 63.2 µM (inactive); with RXF 393, 24.7 µM (inactive). Also, the GI50 in the experiment on SK-MEL-28 was > 72.8 µM (inactive); in the experiment with SK-MEL-5, 75.2 µM (inactive); in the experiment with SNB-75, 28.6 µM (inactive); in the experiment on SW-620 it was > 100 µM (inactive); in the experiment with T47D, 36.6 µM (inactive); in the experiment with U-251, 29.8 µM (inactive). Further, the GI50 in the experiment on UO-31 is > 68.7 µM (inactive).
Consider `Cc1ccc(S(=O)(=O)OC2CCN(C)CC2)cc1`, for which the GI50 in the experiment on A549 is 57.8 µM (inactive); in the experiment on ACHN it was 32.6 µM (inactive); with DU-145, > 100 µM (inactive); in the experiment with HL-60, 18 µM (inactive); in the experiment with Hs-578T it was > 100 µM (inactive); with MCF7 it was 47.9 µM (inactive). For the same compound, the GI50 with MDA-MB-231, in the experiment on MDA-MB-435, with NCI-H460, with OVCAR-8, in the experiment with PC-3 and in the experiment with RXF 393 was > 100 µM (inactive) each time. Besides, the GI50 in the experiment with SK-MEL-28 is > 100 µM (inactive); in the experiment with SK-MEL-5, 15.6 µM (inactive); in the experiment on SK-OV-3, > 100 µM (inactive); in the experiment with SNB-75 it was 42.4 µM (inactive); with SW-620, 20.1 µM (inactive); in the experiment on T47D it was 23.1 µM (inactive). In addition, the GI50 in the experiment with U-251 is > 100 µM (inactive).
As for `COc1cc(C(=O)Oc2c(C(C)=O)sc3c2c(=O)n(-c2ccccc2)c(=S)n3-c2ccccc2)cc(OC)c1OC`, the GI50 in the experiment with A549 was 28.9 µM (inactive); in the experiment with ACHN, 16.6 µM (inactive); with DU-145 it was 26.4 µM (inactive); in the experiment with HL-60 it was 24.7 µM (inactive); in the experiment with Hs-578T, 19.4 µM (inactive); in the experiment on MCF7, 19.5 µM (inactive). The GI50 was 25.9 µM (inactive) with MDA-MB-231; 22.5 µM (inactive) in the experiment with MDA-MB-435; 12.6 µM (inactive) in the experiment on NCI-H460; 18.8 µM (inactive) in the experiment on OVCAR-8; 18.2 µM (inactive) with PC-3; 18.9 µM (inactive) in the experiment with RXF 393. In addition, the GI50 in the experiment on SK-MEL-28 is 19.2 µM (inactive); with SK-MEL-5, 17.4 µM (inactive); in the experiment on SK-OV-3, 31.6 µM (inactive); in the experiment on SNB-75, 19.8 µM (inactive); with SW-620, 25.2 µM (inactive); in the experiment on T47D it was 26.5 µM (inactive). In addition, the GI50 in the experiment on U-251 is 20.7 µM (inactive).
As for `CC(=O)O[C@H]1C(=O)[C@@]2(C)C(C(OC(=O)c3ccccc3)[C@]3(O)CC(OC(=O)C(O)C(NC(=O)c4ccccc4)c4ccc(F)cc4)C(C)=C1C3(C)C)[C@]1(OC(C)=O)CO[C@@H]1C[C@@H]2O` (some centres undefined), the GI50 in the experiment on A549 was 0.00104 µM (active); with ACHN it was 0.0139 µM (active); with DU-145, 0.00126 µM (active); in the experiment with HL-60, < 0.001 µM (active); with Hs-578T, < 0.001 µM (active); in the experiment on MCF7 it was < 0.001 µM (active). Besides, the GI50 in the experiment on MDA-MB-231 is 0.00181 µM (active); in the experiment on MDA-MB-435, < 0.001 µM (active); in the experiment with NCI-H460, < 0.001 µM (active); with OVCAR-8 it was 0.00164 µM (active); in the experiment on PC-3, < 0.001 µM (active); in the experiment on RXF 393, < 0.001 µM (active). Also, the GI50 was 0.00375 µM (active) with SK-MEL-5; 0.00371 µM (active) in the experiment with SK-OV-3; 0.00168 µM (active) with SNB-75; < 0.001 µM (active) in the experiment with SW-620; 0.00966 µM (active) in the experiment on T47D; 0.00124 µM (active) with U-251. Besides, the GI50 in the experiment with UO-31 was 0.166 µM (active).
As to `COC(=O)C(=O)c1c2ccccc2n2ccc3c4ccccc4[nH]c3c12`, the GI50 is > 10 µM (inactive) with A549; > 10 µM (inactive) with ACHN; > 10 µM (inactive) in the experiment on DU-145; > 10 µM (inactive) in the experiment on HL-60; 3.07 µM (inactive) with Hs-578T; > 10 µM (inactive) in the experiment on MCF7. The GI50 is 9.18 µM (inactive) in the experiment on MDA-MB-231; > 10 µM (inactive) with MDA-MB-435; > 10 µM (inactive) in the experiment with NCI-H460; > 10 µM (inactive) with OVCAR-8; > 10 µM (inactive) with PC-3; > 10 µM (inactive) in the experiment on RXF 393. The GI50 with SK-MEL-5, with SK-OV-3, in the experiment with SNB-75, with SW-620, with T47D and with U-251 was > 10 µM (inactive) each time. Also, the GI50 in the experiment on UO-31 is > 10 µM (inactive).
With `CC(=O)C1=C(C)NC(=C(C#N)C#N)C(C#N)=C1`, the GI50 in the experiment with A549, in the experiment with ACHN, with DU-145, with HL-60, with Hs-578T and in the experiment with MCF7 was > 100 µM (inactive) throughout. For the same compound, the GI50 in the experiment with MDA-MB-231, in the experiment with MDA-MB-435, with NCI-H460, in the experiment on OVCAR-8, with PC-3 and with RXF 393 was > 100 µM (inactive) each time. The GI50 in the experiment with SK-MEL-28, in the experiment on SK-MEL-5, with SNB-75, in the experiment with SW-620, in the experiment with T47D and with U-251 was > 100 µM (inactive) each time. The GI50 with UO-31 was > 100 µM (inactive).
For `O=C(O)Cc1c(O)ccc2ccccc12`, the GI50 in the experiment with A549, in the experiment on ACHN, in the experiment on DU-145, in the experiment on Hs-578T, in the experiment with MCF7 and in the experiment with MDA-MB-231 was > 100 µM (inactive) in each case. For the same compound, the GI50 in the experiment with MDA-MB-435, in the experiment on NCI-H460, in the experiment on OVCAR-8, in the experiment with PC-3, with RXF 393 and in the experiment with SK-MEL-28 was > 100 µM (inactive) throughout. For the same compound, the GI50 with SK-MEL-5, in the experiment with SK-OV-3, in the experiment with SNB-75, with SW-620, in the experiment with T47D and with U-251 was > 100 µM (inactive) in each case.
